# Columns and labels:
# p38MAPKγ (MAPK12) = target: T1, p38MAPKγ (MAPK12) (Homo sapiens, UniProt P53778); test: p38 MAPKγ enzyme inhibition (Z-LYTE FRET); type: biochemical; conditions: Table 2B, unit inferred; read-out: p38 MAPKγ (Enzyme Profile)
# T1 construct: purchased Life Technologies
# T1 sequence (P53778 1-367): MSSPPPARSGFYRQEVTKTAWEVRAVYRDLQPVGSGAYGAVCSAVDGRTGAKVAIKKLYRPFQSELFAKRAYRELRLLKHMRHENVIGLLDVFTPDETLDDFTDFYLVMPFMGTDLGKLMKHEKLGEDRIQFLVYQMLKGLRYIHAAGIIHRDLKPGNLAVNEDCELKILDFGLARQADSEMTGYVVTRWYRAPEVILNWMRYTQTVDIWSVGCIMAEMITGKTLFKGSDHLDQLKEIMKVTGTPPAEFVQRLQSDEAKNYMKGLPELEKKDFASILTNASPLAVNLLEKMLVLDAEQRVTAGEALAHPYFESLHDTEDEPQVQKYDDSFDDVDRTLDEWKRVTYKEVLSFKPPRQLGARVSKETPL
# Outline: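 Enzyme (added at 800 ng/mL) was preincubated 2 h at RT with compound (solutions of 40 to 0.0012 μg/mL), then FRET peptide (8 μM) and ATP (400 μM), both as added, were reacted 1 h at RT. Protease development followed for 1 h; phosphorylation was read as the coumarin/fluorescein emission ratio.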
# [1] = target: T2, p38 MAPKα isoform (MAPK14) (Homo sapiens, UniProt Q16539); test: p38 MAPKα enzyme inhibition (Z-LYTE FRET); type: biochemical; conditions: Table 2B, unit inferred; read-out: p38 MAPKα (Enzyme Profile)
# T2 construct: purchased Life Technologies
# Outline: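 Activity was measured indirectly as phosphorylation of a MAPKAP-K2-derived FRET peptide. Enzyme (added at 40 ng/mL) was preincubated 2 h at RT with compound (added solutions 40–0.0012 μg/mL).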
# T2 sequence (Q16539 whole entry, canonical isoform): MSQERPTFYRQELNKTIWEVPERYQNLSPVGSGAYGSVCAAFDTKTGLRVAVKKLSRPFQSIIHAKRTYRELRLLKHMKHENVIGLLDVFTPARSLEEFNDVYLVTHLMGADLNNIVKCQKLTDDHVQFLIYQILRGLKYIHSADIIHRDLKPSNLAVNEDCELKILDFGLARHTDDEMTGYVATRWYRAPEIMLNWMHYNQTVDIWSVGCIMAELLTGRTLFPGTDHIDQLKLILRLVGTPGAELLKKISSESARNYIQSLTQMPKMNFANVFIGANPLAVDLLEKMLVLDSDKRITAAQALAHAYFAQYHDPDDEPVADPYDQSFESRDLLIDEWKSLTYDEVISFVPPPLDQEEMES
IC50 (p38MAPKγ (MAPK12)) [nM],IC50 [1] [nM],Compound
> 15900,19,"CCOc1cccc(-n2nc(C(C)(C)C)cc2NC(=O)Nc2ccc(OCc3ccnc(Nc4cnccn4)c3)c3ccccc23)c1 [Example 184, 1-(3-(tert-butyl)-1-(3-ethoxyphenyl)-1H-pyrazol-5-yl)-3-(4-((2-(pyrazin-2-ylamino)pyridin-4-yl)methoxy)naphthalen-1-yl) urea]"
> 15500,38,"CCOc1ccc(-n2nc(C(C)(C)C)cc2NC(=O)Nc2ccc(OCc3ccnc(Nc4cnccn4)c3)c3ccccc23)cc1F [Example 183, 1-(3-(tert-butyl)-1-(4-ethoxy-3-fluorophenyl)-1H-pyrazol-5-yl)-3-(4-((2-(pyrazin-2-ylamino)pyridin-4-yl)methoxy)naphthalen-1-yl) urea]"
54,< 0.41,Cc1ccc(-n2nc(C(C)(C)C)cc2NC(=O)Nc2ccc(OCc3ccnc(Nc4cnc(C(=O)NC5CCN(C)CC5)cn4)c3)c3ccccc23)cc1 [Example 80]
579,72,"CCCc1cncc(Nc2cc(COc3ccc(NC(=O)Nc4cc(C(C)(C)C)nn4-c4cccc(OC)c4)c4ccccc34)ccn2)n1 [Example 189, 1-(3-(tert-butyl)-1-(3-methoxyphenyl)-1H-pyrazol-5-yl)-3-(4-((2-((6-propyl-pyrazin-2-yl)amino)pyridin-4-yl)methoxy)naphthalen-1-yl)urea]"
41,< 0.41,"Cc1ccc(-n2nc(C(C)(C)C)cc2NC(=O)Nc2ccc(OCc3ccnc(Nc4cnc(C(=O)N5CCN(C)CC5)cn4)c3)c3ccccc23)cc1 [Example 136, 1-(3-(tert-butyl)-1-(p-tolyl)-1H-pyrazol-5-yl)-3-(4-((2-((5-(4-methylpiperazine-1-carbonyl)pyrazin-2-yl)amino)pyridin-4-yl)methoxy)naphthalen-1-yl)urea]"
144,14,COCCN(C)C(=O)c1cnc(Nc2cc(COc3ccc(NC(=O)Nc4cc(C(C)(C)C)nn4-c4ccc(C)cc4)c4ccccc34)ccn2)cn1 [Example 60]
> 15600,89,"CCc1cncc(Nc2cc(COc3ccc(NC(=O)Nc4cc(C(C)(C)C)nn4-c4cc(C)cc(C)c4)c4ccccc34)ccn2)n1 [Example 212, 1-(3-(tert-butyl)-1-(3,5-dimethylphenyl)-1H-pyrazol-5-yl)-3-(4-((2-((6-ethyl-pyrazin-2-yl)amino)pyridin-4-yl)methoxy)naphthalen-1-yl)urea]"
49,12,"Cc1ccc(-n2nc(C(C)(C)C)cc2NC(=O)Nc2ccc(OCc3ccnc(Nc4cncc(CCO)n4)c3)c3ccccc23)cc1 [Example 171, 1-(3-(tert-butyl)-1-(p-tolyl)-1H-pyrazol-5-yl)-3-(4-((2-((6-(2-hydroxyethyl)pyrazin-2-yl)amino)pyridin-4-yl)methoxy)naphthalen-1-yl)urea]"
7900,112,"CCCc1cncc(Nc2cc(COc3ccc(NC(=O)Nc4cc(C(C)(C)C)nn4-c4cccc(C)c4)c4ccccc34)ccn2)n1 [Example 201, 1-(3-(tert-butyl)-1-(m-tolyl)-1H-pyrazol-5-yl)-3-(4-((2-((6-propylpyrazin-2-yl)amino)pyridin-4-yl)methoxy)naphthalen-1-yl)urea]"
2040,< 0.47,"CN(C)Cc1ccc(-n2nc(C(C)(C)C)cc2NC(=O)Nc2ccc(OCc3ccnc(Nc4cnccn4)c3)c3ccccc23)cc1 [Example 267, 1-(3-(tert-butyl)-1-(4-((dimethylamino)methyl)phenyl)-1H-pyrazol-5-yl)-3-(4-((2-(pyrazin-2-ylamino)pyridin-4-yl)methoxy)naphthalen-1-yl)urea]"
66,4.5,"COCc1cccc(-n2nc(C(C)(C)C)cc2NC(=O)Nc2ccc(OCc3ccnc(Nc4cnc(C(=O)NCCN5CCOCC5)cn4)c3)c3ccccc23)c1 [Example 270, 5-((4-(((4-(3-(3-(tert-butyl)-1-(3-(methoxymethyl)phenyl)-1H-pyrazol-5-yl)ureido)naphthalen-1-yl)oxy)methyl)pyridin-2-yl)amino)-N-(2-morpholinoethyl) pyrazine-2-carboxamide]"
1200,34,"CCc1cncc(Nc2cc(COc3ccc(NC(=O)Nc4cc(C(C)(C)C)nn4-c4ccc(OC)c(F)c4)c4ccccc34)ccn2)n1 [Example 168, 1-(3-(tert-butyl)-1-(3-fluoro-4-methoxyphenyl)-1H-pyrazol-5-yl)-3-(4-((2-((6-ethylpyrazin-2-yl)amino)pyridin-4-yl)methoxy)naphthalen-1-yl)urea]"
151,19,"CO[C@H]1CCCN(C(=O)c2cnc(Nc3cc(COc4ccc(NC(=O)Nc5cc(C(C)(C)C)nn5-c5ccc(C)cc5)c5ccccc45)ccn3)cn2)C1 [Example 238, (S)-1-(3-(tert-butyl)-1-(p-tolyl)-1H-pyrazol-5-yl)-3-(4-((2-((5-(3-methoxypiperidine-1-carbonyl)pyrazin-2-yl)amino)pyridin-4-yl)methoxy)naphthalen-1-yl)urea]"
> 14100,6,"Cc1ccc(-n2nc(C(C)(C)C)cc2NC(=O)Nc2ccc(OCc3ccnc(Nc4cnc(C(=O)N5CCCCC5)cn4)c3)c3ccccc23)cc1 [Example 137, 1-(3-(tert-butyl)-1-(p-tolyl)-1H-pyrazol-5-yl)-3-(4-((2-((5-(piperidine-1-carbonyl)pyrazin-2-yl)amino)pyridin-4-yl)methoxy)naphthalen-1-yl)urea]"
342,14,"COCC1CN(C(=O)c2cnc(Nc3cc(COc4ccc(NC(=O)Nc5cc(C(C)(C)C)nn5-c5ccc(C)cc5)c5ccccc45)ccn3)cn2)C1 [Example 225, 1-(3-(tert-butyl)-1-(p-tolyl)-1H-pyrazol-5-yl)-3-(4-((2-((5-(3-(methoxymethyl)azetidine-l-carbonyl)pyrazin-2-yl)amino)pyridin-4-yl)methoxy)naphthalen-1-yl)urea]"
330,16,"CNC(=O)c1cnc(Nc2cc(COc3ccc(NC(=O)Nc4cc(C(C)(C)C)nn4-c4cccc(C)c4)c4ccccc34)ccn2)cn1 [Example 204, 5-((4-(((4-(3-(3-(tert-butyl)-1-(m-tolyl)-1H-pyrazol-5-yl)ureido)naphthalen-1-yl)oxy)methyl)pyridin-2-yl)amino)-N-methylpyrazine-2-carboxamide]"
46,3,"Cc1ccc(-n2nc(C(C)(C)C)cc2NC(=O)Nc2ccc(OCc3ccnc(Nc4cnc(C(=O)N5CCN(C)C(=O)C5)cn4)c3)c3ccccc23)cc1 [Example 244, 1-(3-(tert-butyl)-1-(p-tolyl)-1H-pyrazol-5-yl)-3-(4-((2-((5-(4-methyl-3-oxopipera-zine-1-carbonyl)pyrazin-2-yl)amino)pyridin-4-yl)methoxy)naphthalen-1-yl) urea]"
2390,30,"COc1ccc(-n2nc(C(C)(C)C)cc2NC(=O)Nc2ccc(OCc3ccnc(Nc4cnc(C)c(C)n4)c3)c3ccccc23)cn1 [Example 207, 1-(3-(tert-butyl)-1-(6-methoxypyridin-3-yl)-1H-pyrazol-5-yl)-3-(4-((2-((5,6-dimethylpyrazin-2-yl)amino)pyridin-4-yl)methoxy)naphthalen-1-yl)urea]"
250,17,"COCc1cnc(Nc2cc(COc3ccc(NC(=O)Nc4cc(C(C)(C)C)nn4-c4cccc(F)c4)c4ccccc34)ccn2)cn1 [Example 203, 1-(3-(tert-butyl)-1-(3-fluorophenyl)-1H-pyrazol-5-yl)-3-(4-((2-((5-(methoxymethyl)pyrazin-2-yl)amino)pyridin-4-yl)methoxy)naphthalen-1-yl) urea]"
571,54,"CCc1ccc(-n2nc(C(C)(C)C)cc2NC(=O)Nc2ccc(OCc3ccnc(Nc4cncc(CC)n4)c3)c3ccccc23)cc1 [Example 173, 1-(3-(tert-butyl)-1-(4-ethylphenyl)-1H-pyrazol-5-yl)-3-(4-((2-((6-ethylpyrazin-2-yl)amino)pyridin-4-yl)methoxy)naphthalen-1-yl) urea]"
> 14300,89,"Cc1ccc(-n2nc(C(C)(C)C)cc2NC(=O)Nc2ccc(OCc3ccnc(Nc4cnc(C(=O)N5CC(F)C5)cn4)c3)c3ccccc23)cc1 [Example 193, 1-(3-(tert-butyl)-1-(p-tolyl)-1H-pyrazol-5-yl)-3-(4-((2-((5-(3-fluoroazetidine-1-carbonyl)pyrazin-2-yl)amino)pyridin-4-yl)methoxy)naphthalen-1-yl)urea]"
77,2.4,"Cc1ccc(-n2nc(C(C)(C)C)cc2NC(=O)Nc2ccc(OCc3ccnc(Nc4cnc(C(=O)N5CC[C@H](N(C)C)C5)cn4)c3)c3ccccc23)cc1 [Example 258, (S)-1-(3-(tert-butyl)-1-(p-tolyl)-1H-pyrazol-5-yl)-3-(4-((2-((5-(3-(dimethyl-amino)pyrrolidine-1-carbonyl)pyrazin-2-yl)amino)pyridin-4-yl)methoxy)naphthalen-1-yl)urea]"

# Source: patent publication US11142515B2, “Pyrazolyl-ureas as kinase inhibitors” (RESPIVERT LIMITED, priority 2014, dated 2021)
